# Where “and” joins values, the source holds several entries; their conditions need not be identical. Equal entries are not always repeated.
# System: C. elegans
# Assay: C. elegans motor phenotype scoring on solid media (Punc/jerky-unc, coiled, paralyzed), wild-type young adults
# Type: in vivo, Caenorhabditis elegans
# Details: for Fraction Punc / NP (number of animals) / P (number of animals) / Punc (number of animals) / C1 (number of animals) / C2 (number of animals) / Fraction Coiled / Fraction Paralyzed / Next Day Animals alive (moving fine): single replicate; for AVERAGES Fraction Coiled / AVERAGES Fraction Paralyzed / AVERAGES Fraction Punc: average of 3 replicates
# [1] = 60uM, one hour, young adults, 20 animals per trial, single replicate counts
smiles,measurement,setting,value
O=[N+]([O-])c1ccc(N2CCN(CC3CC=CCC3)CC2)cc1 (stereo not drawn) [Nemacol-4],Fraction Punc,"30 μM, 90 min",0.7 and 0.5 and 0.8
same,NP (number of animals),"30 μM, 90 min",1 and 7 and 4
same,P (number of animals),"30 μM, 90 min",3 and 0
same,Punc (number of animals),"30 μM, 90 min",13 and 9 and 14
same,AVERAGES Fraction Coiled,"30 μM, 120 min",0.0741
same,AVERAGES Fraction Paralyzed,"30 μM, 120 min",0.0185
same,AVERAGES Fraction Punc,"30 μM, 120 min",0.5
same,C1 (number of animals),"30 μM, 120 min",2 and 1
same,C2 (number of animals),"30 μM, 120 min",0
same,Fraction Coiled,"30 μM, 120 min",0.111 and 0.0556
same,Fraction Paralyzed,"30 μM, 120 min",0.0556 and 0.0
same,Fraction Punc,"30 μM, 120 min",0.556 and 0.5
same,NP (number of animals),"30 μM, 120 min",5 and 8
same,P (number of animals),"30 μM, 120 min",1 and 0
same,Punc (number of animals),"30 μM, 120 min",10 and 9
same,AVERAGES Fraction Coiled,"30 μM, 240 min",0.0
same,AVERAGES Fraction Paralyzed,"30 μM, 240 min",0.0
same,AVERAGES Fraction Punc,"30 μM, 240 min",0.333
same,C1 (number of animals),"30 μM, 240 min",0
same,C2 (number of animals),"30 μM, 240 min",0
same,Fraction Coiled,"30 μM, 240 min",0.0
same,Fraction Paralyzed,"30 μM, 240 min",0.0
same,Fraction Punc,"30 μM, 240 min",0.333 and 0.222 and 0.444
same,NP (number of animals),"30 μM, 240 min",12 and 14 and 10
same,P (number of animals),"30 μM, 240 min",0
same,Punc (number of animals),"30 μM, 240 min",6 and 4 and 8
same,AVERAGES Fraction Coiled,"30 μM, 360 min",0.0
same,AVERAGES Fraction Paralyzed,"30 μM, 360 min",0.0
same,AVERAGES Fraction Punc,"30 μM, 360 min",0.111
same,C1 (number of animals),"30 μM, 360 min",0
same,C2 (number of animals),"30 μM, 360 min",0
same,Fraction Coiled,"30 μM, 360 min",0.0
same,Fraction Paralyzed,"30 μM, 360 min",0.0
same,Fraction Punc,"30 μM, 360 min",0.0556 and 0.278 and 0.0
same,NP (number of animals),"30 μM, 360 min",17 and 13 and 18
same,P (number of animals),"30 μM, 360 min",0
same,Punc (number of animals),"30 μM, 360 min",1 and 5 and 0
same,Next Day Animals alive (moving fine),30 μM,"alive, recovered"
same,AVERAGES Fraction Coiled,"60 μM, 30 min",0.111
same,AVERAGES Fraction Paralyzed,"60 μM, 30 min",0.0
same,AVERAGES Fraction Punc,"60 μM, 30 min",0.8
same,C1 (number of animals),"60 μM, 30 min",1 and 0
same,C2 (number of animals),"60 μM, 30 min",2 and 1
same,Fraction Coiled,"60 μM, 30 min",0.167 and 0.0556 and 0.111
same,Fraction Paralyzed,"60 μM, 30 min",0.0
same,Fraction Punc,"60 μM, 30 min",0.7 and 0.9
same,NP (number of animals),"60 μM, 30 min",2 and 4 and 0
same,P (number of animals),"60 μM, 30 min",0
same,Punc (number of animals),"60 μM, 30 min",13 and 16
same,AVERAGES Fraction Coiled,"60 μM, 60 min",0.149
same,AVERAGES Fraction Paralyzed,"60 μM, 60 min",0.037
same,AVERAGES Fraction Punc,"60 μM, 60 min",0.7
same,C1 (number of animals),"60 μM, 60 min",2 and 0 and 1
same,C2 (number of animals),"60 μM, 60 min",2 and 1
same,Fraction Coiled,"60 μM, 60 min",0.222 and 0.0588 and 0.167
same,Fraction Paralyzed,"60 μM, 60 min",0.111 and 0.0
same,Fraction Punc,"60 μM, 60 min",0.667 and 0.7 and 0.8
same,NP (number of animals),"60 μM, 60 min",0 and 4
same,P (number of animals),"60 μM, 60 min",2 and 0
same,Punc (number of animals),"60 μM, 60 min",12 and 15
same,AVERAGES Fraction Coiled,"60 μM, 90 min",0.148
same,AVERAGES Fraction Paralyzed,"60 μM, 90 min",0.111
same,AVERAGES Fraction Punc,"60 μM, 90 min",0.741
same,C1 (number of animals),"60 μM, 90 min",3 and 1 and 0
same,C2 (number of animals),"60 μM, 90 min",1 and 2
same,Fraction Coiled,"60 μM, 90 min",0.222 and 0.167 and 0.0556
same,Fraction Paralyzed,"60 μM, 90 min",0.222 and 0.0556
same,Fraction Punc,"60 μM, 90 min",0.556 and 0.8 and 0.9
same,NP (number of animals),"60 μM, 90 min",0
same,P (number of animals),"60 μM, 90 min",4 and 1
same,Punc (number of animals),"60 μM, 90 min",10 and 14 and 16
same,AVERAGES Fraction Coiled,"60 μM, 120 min",0.111
same,AVERAGES Fraction Paralyzed,"60 μM, 120 min",0.037
same,AVERAGES Fraction Punc,"60 μM, 120 min",0.8
same,C1 (number of animals),"60 μM, 120 min",1 and 0
same,C2 (number of animals),"60 μM, 120 min",1 and 2
same,Fraction Coiled,"60 μM, 120 min",0.111
same,Fraction Paralyzed,"60 μM, 120 min",0.0556 and 0.0
same,Fraction Punc,"60 μM, 120 min",0.7 and 0.9 and 0.8
same,NP (number of animals),"60 μM, 120 min",2 and 0
same,P (number of animals),"60 μM, 120 min",1 and 0
same,Punc (number of animals),"60 μM, 120 min",13 and 16 and 15
same,AVERAGES Fraction Coiled,"60 μM, 240 min",0.0
same,AVERAGES Fraction Paralyzed,"60 μM, 240 min",0.037
same,AVERAGES Fraction Punc,"60 μM, 240 min",0.5
same,C1 (number of animals),"60 μM, 240 min",0
same,C2 (number of animals),"60 μM, 240 min",0
same,Fraction Coiled,"60 μM, 240 min",0.0
same,Fraction Paralyzed,"60 μM, 240 min",0.0 and 0.111
same,Fraction Punc,"60 μM, 240 min",0.4 and 0.333 and 0.7
same,NP (number of animals),"60 μM, 240 min",11 and 12 and 3
same,P (number of animals),"60 μM, 240 min",0 and 2
same,Punc (number of animals),"60 μM, 240 min",7 and 6 and 13
same,AVERAGES Fraction Coiled,"60 μM, 360 min",0.0
same,AVERAGES Fraction Paralyzed,"60 μM, 360 min",0.0
same,AVERAGES Fraction Punc,"60 μM, 360 min",0.37
same,C1 (number of animals),"60 μM, 360 min",0
same,C2 (number of animals),"60 μM, 360 min",0
same,Fraction Coiled,"60 μM, 360 min",0.0
same,Fraction Paralyzed,"60 μM, 360 min",0.0
same,Fraction Punc,"60 μM, 360 min",0.333 and 0.444
same,NP (number of animals),"60 μM, 360 min",12 and 10
same,P (number of animals),"60 μM, 360 min",0
same,Punc (number of animals),"60 μM, 360 min",6 and 8
same,Next Day Animals alive (moving fine),60 μM,"alive, recovered"
same,"any phene, mean % fraction of young adults exhibiting any phenotype (coiled, jerky-Unc or paralyzed)","60uM, one hour, mean of three biological replicates",94.1667%
same,atypical locomotion (number of animals),[1],9 and 8 and 13 and 10 and 2 and 3
same,coiled (number of animals),[1],8 and 7 and 3 and 1 and 4 and 5
same,no phene (number of animals),[1],0 and 3 and 4
same,paralyzed (number of animals),[1],3 and 5 and 1 and 14 and 12
same,EC50,"Caenorhabditis elegans, 1 h, Fig. 1, dose-response at 60 min, wild-type young adults, +/- 95% CI, read-out: EC50",15 ± 2.3 µM

# Source: article PMC10066365, “Nemacol is a small molecule inhibitor of C. elegans vesicular acetylcholine transporter with anthelmintic potential” (Nature Communications, 2023)
